In US11707511B2, “Vaccine compositions and methods of using the same” (The Board of Supervisors of Louisiana State University and …, priority 2017, dated 2023):
Entries after “also recorded” stand apart in the source; their conditions may differ.

Legend:
[1] = tested on: C. albicans 3153A; test: Amp B - antibody combination therapy of mice with disseminated candidiasis; assay type: in vivo, Candida albicans; conditions: BALB/c mice, Amp B 0.5 mg/kg
Description: Mice were then given by i.v. of 5×10e5 of C. albicans 3153A yeast cells, 8 hour later the mice received i.p. 0.5 mg Amp B/kg body weight with each mAb (E2-9, M2-4, 2D5F7 and 2B10C1). Mice without any treatment and mice treated with antifungal drug alone were used as controls. Survival curves were scored and MST were measured.

[2] = tested on: HLA-DR types; conditions: of the most common HLA-DR types tested to date; cited from earlier work
[3] = tested on: C. albicans; test: Active immunization with peptide-pulsed dendritic cells, disseminated candidiasis caused by C. albicans in mice; assay type: in vivo, Candida albicans; conditions: for protection against disseminated candidiasis caused by C. albicans: FIG. 2, antigen-pulsed DC vaccine without CFA; for CFUs in kidneys as compared to controls: FIG. 2 B and D
Description: (§1) Active Immunizations with peptide pulsed dendritic cells. […] It allows us to perform rapid throughput evaluation of candidate short peptides. When protective double universal peptide conjugate(s) become identified by this study, immunization approaches suitable for human use will be applied in further studies. All active vaccinations were conducted as previously described (6,7,9). DCs were pulsed in vitro with universal peptide as described before with minor modification by totally removing CFA for last booster (6). Briefly, DCs in culture were pulsed with the peptide antigen (1 μM) on day 6. On day 7, PGE2 (10^-7M) was added along with LPS (2 μg/ml, Sigma) for 24 h to induce DC maturation. On day 9, antigen-pulsed DCs were washed extensively and […] in 200 μl DPBS were given by intraperitoneal (i.p.) route as the priming dose to mice. The mice were boosted i.p. at day 14 and day 28 with fresh antigen-pulsed DCs without adjuvant.
Table 2 lists universal peptide vaccines that induced protection against disseminated candidiasis caused by C. albicans in mice. The universal peptide vaccines listed in Table 1 are expressed at high homology by all analyzed medically important Candida species in addition to C. albicans (see details at Table 2). By dendritic cell (DC) based immunization approach as described herein, each of the universal peptide vaccines was able to protect mice against disseminated candidiasis caused by C. albicans, with the survival rate 80-100% up to 80-120 days post challenge.
(§2) To perform rapid throughput evaluation of peptide vaccine candidates, immunizations were done by use of the similar antigen-pulsed DC based vaccine strategy with modification by totally removing CFA from vaccine formula. Fba peptide was used as positive control.

[4] = tested on: C. tropicalis (ATCC 20336); test: Peptide-vaccinated mice challenged with lethal dose of C. tropicalis; assay type: in vivo; conditions: for survival: FIG. 3A, i.v. challenge 1×10^6/mouse, up to 80 days; for live fungal cells (CFU) in kidneys as compared to controls: FIG. 3B, p<0.001
Description: as §1
Peptide-vaccinated mice were challenged with lethal dose of live C. tropicalis cells (ATCC 20336; i.v. challenge dose: 1×10^6/mouse).

[5] = tested on: C. glabrata CBS138 (ATCC 2001); test: Peptide-vaccinated, cyclophosphamide-immunosuppressed mice challenged with C. glabrata; assay type: in vivo; conditions: FIG. 4; 1×10^7 cells/mouse
Description: as §1
Peptide vaccinated mice were also challenged with C. glabrata, which has emerged as the second most common cause of invasive candidiasis in the US. Since C. glabrata is not lethal for wild-type mice, immunosuppression in vaccinated mice were induced by cyclophosphamide (50 mg/kg) treatment for two weeks, and then mice were challenged with live C. glabrata cells [CBS138 (ATCC 2001), 1×10^7 cells/mouse]. […] CFU experiments will be performed and completed. […]

[6] = Induction of specific anti-peptide antibody responses in immunized mice; assay type: in vivo; conditions: BALB/c mice; peptide-pulsed DC; data not shown
From the text: as §2
The double chimeric peptide conjugate vaccines have been tested for their abilities to induce specific anti-peptide antibodies and protective immunity against the disease caused by C. albicans. […] The enhancement in vaccine efficacy was evidenced by both increased survival and reduced or non-detectable fungal burden (colony forming units, CFUs) in kidneys of animals.

[7] = when incorporated into several peptide antigens; average; cited from earlier work

Row | Compound | protection against disseminated candidiasis caused by C. albicans [3] | CFUs in kidneys as compared to controls [3] | survival [4] | live fungal cells (CFU) in kidneys as compared to controls [4] | protection against disseminated candidiasis caused by C. glabrata [5] | specific antibody responses [6] | further results
1 | C[C@@H]1[C@H](O)[C@@H](C)/C=C/C=C/C=C/C=C/C=C/C=C/C=C/[C@H](O[C@@H]2O[C@H](C)[C@@H](O)[C@H](N)[C@@H]2O)C[C@@H]2O[C@](O)(C[C@@H](O)C[C@@H](O)[C@H](O)CC[C@@H](O)C[C@@H](O)CC(=O)O[C@H]1C)C[C@H](O)[C@H]2C(=O)O [Amp B, amphotericin B] |  |  |  |  |  |  | therapeutic effect / survival time ([1]; treatment 8 hours post-infection, in words): the same susceptible to the disease as mice that received no Amp B; also recorded: no therapeutic effect; MST (mean survival times) ([1]; Table 16, 5×10e5 C. albicans 3153A i.v., treatment i.p. 8 hours post-infection): 14.5 ± 3.7 days
2 | AKFVAAWTLKAAA [PADRE] |  |  |  |  |  |  | HLA-DR types bound with high or intermediate affinity [2]: 15 of 16
3 | YDQVLDLSLLFNAIP [Met6-2] | good protective responses; also recorded: high degree protection | reduced or non-detectable CFUs | 80% | significantly reduced live fungal cells | high degree protection | able to induce specific antibody responses | 
4 | RGD |  |  |  |  |  |  | enhancement of antibody titers [7]: 10 times
5 | FbaU1: putative universal Fba peptide; Table 17 equates it with Fba3 (SEQ ID NO: 36) but tested as a separate peptide (FAIPAINVTSSSTVVAALE) | good protective responses; also recorded: high degree protection | reduced or non-detectable CFUs | 100% | significantly reduced live fungal cells | high degree protection | able to induce specific antibody responses | 
